The subject of one data set is M. tuberculosis H37Rv. The following applies: cited from earlier work.
For another data set, the system named is M. tuberculosis. The following applies: cited from earlier work.
Data set [1] deals with M. tuberculosis H37Ra. Nature of the data set: microbe, parasite or virus in culture. As to conditions: for MIC: Mycobacterium tuberculosis, H37RA, 168 h, read-out: MIC against M. tuberculosis H37Ra. It is filed as cell-based, Mycobacterium tuberculosis.
Data set [2] deals with M. tuberculosis DNA gyrase holoenzyme (GyrB ATPase activity) (Mycobacterium tuberculosis, UniProt P9WG45). Kind of data set: biochemical. The following applies: for IC50 / IC50 for inhibition of M. tuberculosis DNA gyrase ATPase activity: triplicate, at least 11 inhibitor concentrations; for IC50: read-out: IC50 for inhibition of M. tuberculosis DNA gyrase ATPase activity.
M. tuberculosis DNA gyrase holoenzyme (GyrB ATPase activity), sequence (P9WG45 whole entry, looked up): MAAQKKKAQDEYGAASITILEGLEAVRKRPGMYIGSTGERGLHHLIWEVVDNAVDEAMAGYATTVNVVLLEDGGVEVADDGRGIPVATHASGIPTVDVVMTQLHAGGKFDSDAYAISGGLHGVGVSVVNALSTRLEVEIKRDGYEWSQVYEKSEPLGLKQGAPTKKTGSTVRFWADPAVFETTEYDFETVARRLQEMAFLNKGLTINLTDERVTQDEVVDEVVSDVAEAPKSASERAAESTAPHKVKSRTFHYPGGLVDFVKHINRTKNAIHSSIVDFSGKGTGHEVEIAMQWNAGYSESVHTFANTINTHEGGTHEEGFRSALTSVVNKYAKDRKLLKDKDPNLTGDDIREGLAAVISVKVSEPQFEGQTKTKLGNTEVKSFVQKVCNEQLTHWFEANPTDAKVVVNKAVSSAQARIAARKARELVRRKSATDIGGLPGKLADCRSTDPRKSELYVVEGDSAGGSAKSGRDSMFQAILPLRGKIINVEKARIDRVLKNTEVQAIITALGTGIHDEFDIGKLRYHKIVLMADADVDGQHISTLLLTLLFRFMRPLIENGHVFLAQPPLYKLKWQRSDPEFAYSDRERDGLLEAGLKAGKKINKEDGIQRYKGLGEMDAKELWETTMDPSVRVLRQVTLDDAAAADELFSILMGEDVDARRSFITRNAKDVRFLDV
The subject of the next data set is Caco-2 cells. Nature of the data set: In vitro cytotoxicity, MTT assay. It is filed as cell-based. The method, then: Caco-2 cells (ATCC no. HTB-37) were used for cytotoxicity testing of selected compounds as described in our previous work.[32] Cell viability of tested compounds on Caco-2 cells was determined using 3-(4,5-dimethylthiazol-2-yl)-2,5-diphenyltetrazolium bromide (MTT) following a modified assay procedure.[52] Absorbance was measured at 590 nm using a microplate reader (Infinite M200 PRO, Tecan Group Ltd., Switzerland). The experiment was performed in triplicate and compound concentrations at which cells retained a viability of more than 80% were considered as nontoxic to cells.[53]
Figure S1. Hit compound cytotoxicity against Caco-2 cells. Cells were incubated with different concentrations of compounds (1 (A), 2 (B), 3 (C), 8 (D), 11 (E), 14 (F), G24 (G), and G26 (H)) for 24 h and viability measured by MTT assay. Data are presented as the mean ± SD (n = 6). The yellow bars represent the maximum concentrations at which compounds are non-cytotoxic towards Caco-2 cells.
(1 picture or pasted object on this page, not shown here)

Data set [3] concerns M. tuberculosis H37Ra. The following applies: previous virtual screening work; cited from earlier work.

Converted amounts (≈) assume the structure as drawn. “Also recorded” adds a separate entry of the source.

Turning to `COc1ccc(CCNCC(O)Cn2c3ccccc3c3ccccc32)cc1OC` (stereo not shown) [AF-399/41048884], in the data set on M. tuberculosis H37Rv, the IC50 was 10600 nM.

Regarding `OC(CN1CCN(c2ccccn2)CC1)Cn1c2ccccc2c2ccccc21` (stereo not shown) [AG-690/11353646], the IC50 with M. tuberculosis is 36100 nM.

In the case of `OC(CNCCC1C=Nc2ccccc21)Cn1c2ccccc2c2ccccc21` (stereo not shown) [Compound 1], the MIC with M. tuberculosis H37Ra [1] stood at 6.2 µg/mL (≈ 16.2 µM). Moreover, the IC50 in data set [2] amounted to 730 nM. In the data set with Caco-2 cells (human, Caco-2, 24 h), the “maximum non-cytotoxic concentration toward Caco-2 cells” value amounted to 25.0 µg/mL.

Regarding `OC(CNCCOc1ccccc1)Cn1c2ccccc2c2ccccc21` (stereo not shown) [Compound 2], in the data set with M. tuberculosis H37Ra [1], the MIC was 6.2 µg/mL (≈ 17.2 µM). Besides, in data set [2], the IC50 came to 1340 nM. For the same compound, the “maximum non-cytotoxic concentration toward Caco-2 cells” value with Caco-2 cells (human, Caco-2, 24 h) is 12.5 µg/mL.

Take `OC(CNCc1ccccc1)Cn1c2ccccc2c2ccccc21` (stereo not shown) [Compound 3]: the MIC with M. tuberculosis H37Ra [1] is 12.5 µg/mL (≈ 37.8 µM). Further, in data set [2], the IC50 was 3820 nM. In the data set with Caco-2 cells (24 h, MTT, viability of more than 80% considered nontoxic), the “maximum non-cytotoxic concentration toward Caco-2 cells” value was found to be 12.5 µg/mL.

Consider `Cc1ccc(NCC(O)Cn2c3ccccc3c3ccccc32)cc1Cl` (stereo not shown) [Compound 4], for which the MIC in the data set with M. tuberculosis H37Ra [1] was more than 100 µg/mL.

In the case of `O=C(NNCC(O)Cn1c2ccccc2c2ccccc21)c1ccccc1` (stereo not shown) [Compound 5], in the data set on M. tuberculosis H37Ra [1], the MIC is more than 100 µg/mL.

Take `CCc1ccc(NCC(O)Cn2c3ccccc3c3ccccc32)cc1` (stereo not shown) [Compound 6]: in the data set with M. tuberculosis H37Ra [1], the MIC was more than 100 µg/mL.

With `Cc1ccc(NCC(O)Cn2c3ccccc3c3ccccc32)cc1` (stereo not shown) [Compound 7], the MIC in the data set with M. tuberculosis H37Ra [1] was more than 100 µg/mL.

For the compound `CCn1c2ccccc2c2cc(CNCCNCC(C)O)ccc21` (stereo not shown) [Compound 8], the MIC in the data set on M. tuberculosis H37Ra [1] is 25 µg/mL (≈ 76.8 µM). In data set [2], the “ATPase inhibition, fold more effective than carbazole derivative 1” value is reported as “approximately 3 fold”; the “ATPase inhibition, fold more effective than carbazole derivative 2” value was approximately 5 fold; the “ATPase inhibition, fold more effective than carbazole derivative 3” value was approximately 15 fold; the “IC50 fold better than novobiocin” value was determined as 5 fold. Further, the IC50 in data set [2] amounted to 260 nM. For the same compound, the “maximum non-cytotoxic concentration toward Caco-2 cells” value in the data set on Caco-2 cells (human, Caco-2, 24 h) stood at 12.5 µg/mL.

For the compound `OC(CN1CCOCC1)Cn1c(-c2ccccc2)c(-c2ccccc2)c2ccc3ccccc3c21` (stereo not shown) [Compound 9], the MIC in the data set on M. tuberculosis H37Ra [1] turned out to be 12.5 µg/mL (≈ 27 µM). Moreover, the “IC50 for inhibition of M. tuberculosis DNA gyrase ATPase activity” value (“IC50 for inhibition” below) in data set [2] is “inactive; also recorded: absence of observable ATPase inhibition”.

As for `OC(CNCc1ccco1)Cn1c(-c2ccccc2)c(-c2ccccc2)c2ccc3ccccc3c21` (stereo not shown) [Compound 10], in the data set on M. tuberculosis H37Ra [1], the MIC stood at 3.1 µg/mL (≈ 6.56 µM). Further, the “IC50 for inhibition” value in data set [2] is “inactive; also recorded: absence of observable ATPase inhibition”.

Regarding `OCCNCC(O)Cn1c(-c2ccccc2)c(-c2ccccc2)c2ccc3ccccc3c21` (stereo not shown) [Compound 11], the MIC with M. tuberculosis H37Ra [1] was found to be 3.1 µg/mL (≈ 7.1 µM). Further, in data set [2], the “IC50 fold better than novobiocin” value worked out at 2 fold and the IC50 stood at 560 nM. Further, the “maximum non-cytotoxic concentration toward Caco-2 cells” value in the data set on Caco-2 cells (human, Caco-2, 24 h) amounted to 0.87 µg/mL.

As to `Cc1cc(C)c2c(c1)c(-c1ccccc1)c(-c1ccccc1)n2CC(O)CN1CCOCC1` (stereo not shown) [Compound 12], in the data set with M. tuberculosis H37Ra [1], the MIC turned out to be 12.5 µg/mL (≈ 28.4 µM). The “IC50 for inhibition” value in data set [2] is “inactive; also recorded: absence of observable ATPase inhibition”.

Consider `Cc1ccc2c(c1)c(-c1ccccc1)c(-c1ccccc1)n2CC(O)CN1CCOCC1` (stereo not shown) [Compound 13], for which, in the data set on M. tuberculosis H37Ra [1], the MIC is 12.5 µg/mL (≈ 29.3 µM). Moreover, in data set [2], the “IC50 for inhibition” value was “inactive; also recorded: absence of observable ATPase inhibition”.

Take `Cc1ccc2c(c1)c(-c1ccccc1)c(-c1ccccc1)n2CC(O)CNC(CO)(CO)CO` (stereo not shown) [Compound 14]: the MIC with M. tuberculosis H37Ra [1] was 6.2 µg/mL (≈ 13.5 µM). Moreover, in data set [2], the “IC50 fold better than novobiocin” value was found to be 16 fold and the IC50 amounted to 80 nM. Further, the “maximum non-cytotoxic concentration toward Caco-2 cells” value in the data set on Caco-2 cells (human, Caco-2, 24 h) was determined as 12.5 µg/mL.

Consider `Cc1ccc2c(c1)c(-c1ccccc1)c(-c1ccccc1)n2CC(O)CN(CCO)CCO` (stereo not shown) [G24, reference compound], for which, in the data set with M. tuberculosis H37Ra [1], the MIC was 12.5 µg/mL (≈ 28.1 µM). The IC50 in data set [2] was determined as 2690 nM. In the data set with Caco-2 cells (human, 24 h), the “maximum non-cytotoxic concentration, fold higher than for G26” value stood at 15 fold. For the same compound, the “maximum non-cytotoxic concentration toward Caco-2 cells” value with Caco-2 cells (human, Caco-2, 24 h) came to 25 µg/mL. Moreover, the “MIC against M. tuberculosis (previous work)” value in the data set on M. tuberculosis H37Ra [3] was 12.5 µg/mL (≈ 28.1 µM).

Turning to `CO[C@@H]1[C@@H](OC(N)=O)[C@@H](O)[C@H](Oc2ccc3c(O)c(NC(=O)c4ccc(O)c(CC=C(C)C)c4)c(=O)oc3c2C)OC1(C)C` [Novobiocin, reference compound], in the data set on M. tuberculosis H37Ra [1], the “MIC against M. tuberculosis H37Ra” value is more than 100 µg/mL and the MIC was more than 100 µg/mL. In the data set with M. tuberculosis H37Ra [3], the “MIC against M. tuberculosis (previous work)” value is listed as “exceeding 100 μg/mL”.

The term IC50 denotes the midpoint of a concentration-inhibition curve.
